# Target: T1, bFUCA1 (Bos taurus, UniProt Q2KIM0)
# T1 sequence (Q2KIM0 23-468): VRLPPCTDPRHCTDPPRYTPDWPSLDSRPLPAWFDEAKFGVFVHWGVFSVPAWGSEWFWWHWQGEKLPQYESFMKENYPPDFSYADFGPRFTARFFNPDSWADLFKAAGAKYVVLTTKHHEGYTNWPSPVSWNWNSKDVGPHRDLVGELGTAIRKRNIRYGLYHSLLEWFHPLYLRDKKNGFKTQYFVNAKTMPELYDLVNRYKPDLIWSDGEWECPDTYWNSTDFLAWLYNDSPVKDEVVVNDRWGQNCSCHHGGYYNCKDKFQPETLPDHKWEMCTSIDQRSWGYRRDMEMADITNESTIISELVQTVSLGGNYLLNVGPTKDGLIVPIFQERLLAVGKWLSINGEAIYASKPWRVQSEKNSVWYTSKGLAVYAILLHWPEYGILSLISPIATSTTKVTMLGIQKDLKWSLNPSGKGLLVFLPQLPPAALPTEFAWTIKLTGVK
# Test: enzyme inhibition assay with 4-nitrophenyl α-L-fucopyranoside
# Type: biochemical
row,Ki [µM],Structure (SMILES)
1,4.8 ± 0.5,"CCCCCCCCCCc1ccc(NC(=O)ON=C2O[C@@H](C)[C@@H](O)[C@@H](O)[C@@H]2O)cc1 [compound 43, 43]"
2,323 ± 12,"C[C@@H]1OC(=NO)[C@@H](O)[C@H](O)[C@@H]1O [compound 12, 1,5-hydroximolactone 12]"
3,9.5 ± 0.9,"COc1ccc(NC(=O)ON=C2O[C@@H](C)[C@@H](O)[C@@H](O)[C@@H]2O)cc1 [compound 41, 41]"
4,172 ± 7,"CCCCNC(=O)ON=C1O[C@@H](C)[C@@H](O)[C@@H](O)[C@@H]1O [compound 31, 31]"
5,7.5 ± 0.4,"CCCCc1ccc(NC(=O)ON=C2O[C@@H](C)[C@@H](O)[C@@H](O)[C@@H]2O)cc1 [compound 42, 42]"
6,220 ± 12,"C[C@@H]1OC(=NOC(=O)NC2CCC2)[C@@H](O)[C@H](O)[C@@H]1O [compound 36, 36]"
7,11 ± 1,"C[C@@H]1O/C(=N\OC(=O)Nc2ccccc2)[C@@H](O)[C@H](O)[C@@H]1O [compound 39, 39]"
8,320 ± 12,"CC(C)NC(=O)ON=C1O[C@@H](C)[C@@H](O)[C@@H](O)[C@@H]1O [compound 33, 33]"
9,175 ± 6,"C=CCNC(=O)ON=C1O[C@@H](C)[C@@H](O)[C@@H](O)[C@@H]1O [compound 30, 30]"
10,190 ± 11,"CCCNC(=O)ON=C1O[C@@H](C)[C@@H](O)[C@@H](O)[C@@H]1O [compound 29, 29]"
11,325 ± 8,"C[C@@H]1OC(=NOC(=O)NC2CCCC2)[C@@H](O)[C@H](O)[C@@H]1O [compound 37, 37]"
12,143 ± 8,"CCCCCCNC(=O)ON=C1O[C@@H](C)[C@@H](O)[C@@H](O)[C@@H]1O [compound 32, 32]"
13,184 ± 6,"C[C@@H]1OC(=NOC(=O)NC2CC2)[C@@H](O)[C@H](O)[C@@H]1O [compound 35, 35]"
14,85 ± 4,"C[C@@H]1OC(=NOC(=O)Nc2ccc(Br)cc2)[C@@H](O)[C@H](O)[C@@H]1O [compound 40, 40]"
15,440 ± 9,"C[C@@H]1OC(=NOC(=O)NC(C)(C)C)[C@@H](O)[C@H](O)[C@@H]1O [compound 34, 34]"

# Target: T2, BT2970 (Bacteroides thetaiotaomicron, UniProt Q8A3I4)
# T2 sequence (Q8A3I4 30-484): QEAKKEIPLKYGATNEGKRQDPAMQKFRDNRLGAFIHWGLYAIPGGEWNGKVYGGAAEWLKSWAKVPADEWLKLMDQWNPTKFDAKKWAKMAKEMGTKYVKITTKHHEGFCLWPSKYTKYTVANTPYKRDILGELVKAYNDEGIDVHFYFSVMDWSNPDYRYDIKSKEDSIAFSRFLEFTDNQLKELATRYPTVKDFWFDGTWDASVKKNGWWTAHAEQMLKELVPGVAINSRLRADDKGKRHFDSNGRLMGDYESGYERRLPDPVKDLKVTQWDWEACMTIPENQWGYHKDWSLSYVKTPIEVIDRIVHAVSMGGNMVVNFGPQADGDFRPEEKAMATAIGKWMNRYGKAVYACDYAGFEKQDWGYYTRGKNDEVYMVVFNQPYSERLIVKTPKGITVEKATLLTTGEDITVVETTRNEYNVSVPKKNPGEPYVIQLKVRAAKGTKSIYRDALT
# Test: enzyme inhibition
# Type: biochemical
row,Ki [µM],Structure (SMILES)
1,121 ± 24,"C[C@@H]1O/C(=N\OC(=O)Nc2ccccc2)[C@@H](O)[C@H](O)[C@@H]1O [compound 39, 39]"
